Experimental data as given in PubChem BioAssay (NCI).
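GI50: concentration for 50% inhibition of growth. Definition used: TGI = concentration required for complete inhibition of growth.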

Legend:
Assay in all cases: inhibition of tumour cell growth, NCI panel, 384-well format; in the data active means GI50 below about 0.43 µM; inactive means the rest
786-0 renal = test system: 786-0 renal
ACHN renal = test system: ACHN renal
BT-549 breast = test system: BT-549 breast
CAKI-1 renal = test system: CAKI-1 renal
CCRF-CEM leukemia = test system: CCRF-CEM leukemia
DU-145 prostate = test system: DU-145 prostate
EKVX NSCLC = test system: EKVX NSCLC
HCT-116 colon = test system: HCT-116 colon
HCT-15 colon = test system: HCT-15 colon
HL-60(TB) leukemia = test system: HL-60(TB) leukemia
HOP-62 NSCLC = test system: HOP-62 NSCLC
HOP-92 NSCLC = test system: HOP-92 NSCLC
HS 578T breast = test system: HS 578T breast
HT29 colon = test system: HT29 colon
IGROV1 ovarian = test system: IGROV1 ovarian
K-562 leukemia = test system: K-562 leukemia
KM12 colon = test system: KM12 colon
M14 melanoma = test system: M14 melanoma
MALME-3M melanoma = test system: MALME-3M melanoma
MCF7 breast = test system: MCF7 breast
MDA-MB-231 breast = test system: MDA-MB-231 breast
MDA-MB-435 melanoma = test system: MDA-MB-435 melanoma
MDA-MB-468 breast = test system: MDA-MB-468 breast
MOLT-4 leukemia = test system: MOLT-4 leukemia
NCI-H226 lung = test system: NCI-H226 lung
NCI-H522 lung = test system: NCI-H522 lung
NCI/ADR-RES ovarian = test system: NCI/ADR-RES ovarian
OVCAR-3 ovarian = test system: OVCAR-3 ovarian
OVCAR-4 ovarian = test system: OVCAR-4 ovarian
OVCAR-5 ovarian = test system: OVCAR-5 ovarian
OVCAR-8 ovarian = test system: OVCAR-8 ovarian
PC-3 prostate = test system: PC-3 prostate
RPMI-8226 leukemia = test system: RPMI-8226 leukemia
RXF 393 renal = test system: RXF 393 renal
SF-268 CNS = test system: SF-268 CNS
SF-539 CNS = test system: SF-539 CNS
SK-MEL-2 melanoma = test system: SK-MEL-2 melanoma
SK-MEL-28 melanoma = test system: SK-MEL-28 melanoma
SN12C renal = test system: SN12C renal
SNB-19 CNS = test system: SNB-19 CNS
SNB-75 CNS = test system: SNB-75 CNS
SW-620 colon = test system: SW-620 colon
U251 glioblastoma = test system: U251 glioblastoma
UACC-257 melanoma = test system: UACC-257 melanoma
UACC-62 melanoma = test system: UACC-62 melanoma
UO-31 renal = test system: UO-31 renal

CC1=C(/C=C/C(C)=C/C=C/C(C)=C/C(=O)O)C(C)(C)CCC1
40 µM: TGI (HS 578T breast)
49.7 µM: TGI (SK-MEL-2 melanoma)
34.9 µM: TGI (OVCAR-3 ovarian)
36.5 µM: TGI (BT-549 breast)
27.9 µM: TGI (MOLT-4 leukemia)
39.7 µM: TGI (PC-3 prostate)
57.5 µM: TGI (RXF 393 renal)
48.4 µM: TGI (MDA-MB-468 breast)
58.3 µM: TGI (OVCAR-8 ovarian)
49.1 µM: TGI (SF-268 CNS)
72.2 µM: TGI (MDA-MB-231 breast)
inactive: GI50 ([…]-0 renal) 29.7 µM | GI50 (ACHN renal) 52.2 µM | GI50 (BT-549 breast) 20.3 µM | GI50 (CAKI-1 renal) 38.6 µM | GI50 (CCRF-CEM leukemia) 20.1 µM | GI50 (DU-145 prostate) 45.7 µM | GI50 (EKVX NSCLC) > 100 µM | GI50 (HCT-116 colon) 20.6 µM | GI50 (HCT-15 colon) 22.7 µM | GI50 (HOP-62 NSCLC) > 100 µM | GI50 (HOP-92 NSCLC) 38.9 µM | GI50 (HS 578T breast) 16.4 µM | GI50 (HT29 colon) 21.6 µM | GI50 (IGROV1 ovarian) > 100 µM | GI50 (K-562 leukemia) 21.5 µM | GI50 (KM12 colon) 38 µM | GI50 (M14 melanoma) 19.4 µM | GI50 (MALME-3M melanoma) 0.95 µM | GI50 (MCF7 breast) 18 µM | GI50 (MDA-MB-231 breast) 25.4 µM | GI50 (MDA-MB-435 melanoma) 55.6 µM | GI50 (MDA-MB-468 breast) 25.4 µM | GI50 (MOLT-4 leukemia) 14.6 µM | GI50 (NCI-H226 lung) 33.2 µM | GI50 (NCI-H522 lung) 24.1 µM | GI50 (NCI/ADR-RES ovarian) > 100 µM | GI50 (OVCAR-3 ovarian) 19.6 µM | GI50 (OVCAR-4 ovarian) 46 µM | GI50 (OVCAR-5 ovarian) 37.2 µM | GI50 (OVCAR-8 ovarian) 24.1 µM | GI50 (PC-3 prostate) 19.8 µM | GI50 (RXF 393 renal) 24.3 µM | GI50 (SF-268 CNS) 22.9 µM | GI50 (SF-539 CNS) 12 µM | GI50 (SK-MEL-2 melanoma) 27.7 µM | GI50 (SK-MEL-28 melanoma) 47.1 µM | GI50 (SN12C renal) 25.9 µM | GI50 (SNB-19 CNS) 30.1 µM | GI50 (SNB-75 CNS) 31.5 µM | GI50 (SW-620 colon) 47.3 µM | GI50 (U251 glioblastoma) > 100 µM | GI50 (UACC-257 melanoma) 33.4 µM | GI50 (UACC-62 melanoma) 19.2 µM | GI50 (UO-31 renal) 86 µM
34.5 µM: TGI (CCRF-CEM leukemia)
39 µM: TGI (HCT-116 colon)
24.9 µM: TGI (SF-539 CNS)
40.2 µM: TGI (UACC-62 melanoma)
11.3 µM: TGI (RPMI-8226 leukemia)
active: GI50 (HL-60(TB) leukemia) 0.0259 µM | GI50 (RPMI-8226 leukemia) 0.293 µM
16.9 µM: TGI (HL-60(TB) leukemia)
89.1 µM: TGI (SN12C renal)
75.9 µM: TGI (786-0 renal)
52.6 µM: TGI (HCT-15 colon)
> 100 µM: TGI (ACHN renal) | TGI (CAKI-1 renal) | TGI (DU-145 prostate) | TGI (EKVX NSCLC) | TGI (HOP-62 NSCLC) | TGI (HOP-92 NSCLC) | TGI (IGROV1 ovarian) | TGI (KM12 colon) | TGI (MCF7 breast) | TGI (MDA-MB-435 melanoma) | TGI (NCI-H226 lung) | TGI (NCI/ADR-RES ovarian) | TGI (OVCAR-4 ovarian) | TGI (OVCAR-5 ovarian) | TGI (SK-MEL-28 melanoma) | TGI (SNB-19 CNS) | TGI (SW-620 colon) | TGI (U251 glioblastoma) | TGI (UACC-257 melanoma) | TGI (UO-31 renal)
79.2 µM: TGI (SNB-75 CNS)
38 µM: TGI (M14 melanoma)
41.3 µM: TGI (K-562 leukemia)
46 µM: TGI (HT29 colon)
51.5 µM: TGI (NCI-H522 lung)
